Assay results taken from patent US20260365670A1, “EGFR INHIBITORS AND USES THEREOF” (DIZAL (JIANGSU) PHARMACEUTICAL CO., LTD., priority 2022, published 2026).
Where two headings read alike, the source gives them in different places.

How the values were obtained:
EGFR wild type = biological target: T1, EGFR wild type (Homo sapiens, UniProt P00533); assay: Inhibition of EGFR wild type biochemical enzymatic activity (HTRF); conditions: EGFR wild type, 1 mM ATP, 1 h at room temperature
T1 construct: purchased Carna Bio
Procedure, shortened: (§1)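 Kinase activity is measured by HTRF detection of biotinylated TK substrate (1 μM) phosphorylation at 1 mM ATP. Incubation lasts 1 h at room temperature before an EDTA stop, and IC50 is fitted with a four-parameter logistic model.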

EGFR L858R = biological target: T2, EGFR L858R (Homo sapiens, UniProt P00533, L858R); assay: Inhibition of EGFR L858R biochemical enzymatic activity (HTRF); conditions: 1 mM ATP, 1 h at room temperature
T2 construct: purchased Carna Bio
Procedure, shortened: as §1

EGFR L858R/T790M = biological target: T3, EGFR L858R/T790M (Homo sapiens, UniProt P00533, L858R/T790M); assay: Inhibition of EGFR L858R/T790M biochemical enzymatic activity (HTRF); conditions: EGFR L858R/T790M, 1 mM ATP, 1 h at room temperature
T3 construct: purchased Carna Bio
T3 sequence (P00533 25-1210 T790M/L858R): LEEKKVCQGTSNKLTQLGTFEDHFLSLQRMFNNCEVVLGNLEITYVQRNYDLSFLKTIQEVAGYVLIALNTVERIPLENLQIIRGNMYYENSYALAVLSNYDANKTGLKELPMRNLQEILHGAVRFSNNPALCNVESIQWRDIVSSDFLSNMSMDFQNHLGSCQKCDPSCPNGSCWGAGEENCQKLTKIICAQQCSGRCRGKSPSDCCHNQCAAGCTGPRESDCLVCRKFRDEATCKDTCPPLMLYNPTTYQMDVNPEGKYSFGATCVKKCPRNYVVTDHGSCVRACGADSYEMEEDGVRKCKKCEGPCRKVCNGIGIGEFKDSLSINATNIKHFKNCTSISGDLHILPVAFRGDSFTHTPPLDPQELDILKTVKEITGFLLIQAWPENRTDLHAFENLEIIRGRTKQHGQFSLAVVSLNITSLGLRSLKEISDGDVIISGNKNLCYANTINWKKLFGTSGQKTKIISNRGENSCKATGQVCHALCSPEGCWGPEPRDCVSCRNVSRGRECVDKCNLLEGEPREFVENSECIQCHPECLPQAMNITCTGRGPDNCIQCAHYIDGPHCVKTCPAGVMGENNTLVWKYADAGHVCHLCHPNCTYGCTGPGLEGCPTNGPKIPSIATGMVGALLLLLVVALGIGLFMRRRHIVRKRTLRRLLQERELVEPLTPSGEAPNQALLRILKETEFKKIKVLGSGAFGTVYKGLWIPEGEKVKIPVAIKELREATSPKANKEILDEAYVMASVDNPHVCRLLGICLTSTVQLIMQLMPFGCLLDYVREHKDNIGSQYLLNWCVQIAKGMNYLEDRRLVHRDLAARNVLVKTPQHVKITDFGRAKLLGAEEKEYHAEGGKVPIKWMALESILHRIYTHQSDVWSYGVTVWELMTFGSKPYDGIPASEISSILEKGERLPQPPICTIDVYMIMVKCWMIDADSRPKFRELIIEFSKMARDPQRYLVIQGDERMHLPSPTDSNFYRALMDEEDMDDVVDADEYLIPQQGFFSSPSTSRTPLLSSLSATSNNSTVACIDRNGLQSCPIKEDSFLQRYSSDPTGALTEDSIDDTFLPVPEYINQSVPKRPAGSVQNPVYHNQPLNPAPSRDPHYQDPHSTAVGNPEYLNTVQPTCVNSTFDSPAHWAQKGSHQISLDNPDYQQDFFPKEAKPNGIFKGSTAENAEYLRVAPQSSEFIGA
Procedure, shortened: as §1

EGFR Exon19Del = biological target: T4, EGFR Exon19Del (Homo sapiens, UniProt P00533, DEL746-750); assay: Inhibition of EGFR Exon19Del biochemical enzymatic activity (HTRF); conditions: 1 mM ATP, 1 h at room temperature
T4 construct: purchased Carna Bio
T4 sequence (P00533 with tags, fused parts or gaps DEL746-750 limits assumed): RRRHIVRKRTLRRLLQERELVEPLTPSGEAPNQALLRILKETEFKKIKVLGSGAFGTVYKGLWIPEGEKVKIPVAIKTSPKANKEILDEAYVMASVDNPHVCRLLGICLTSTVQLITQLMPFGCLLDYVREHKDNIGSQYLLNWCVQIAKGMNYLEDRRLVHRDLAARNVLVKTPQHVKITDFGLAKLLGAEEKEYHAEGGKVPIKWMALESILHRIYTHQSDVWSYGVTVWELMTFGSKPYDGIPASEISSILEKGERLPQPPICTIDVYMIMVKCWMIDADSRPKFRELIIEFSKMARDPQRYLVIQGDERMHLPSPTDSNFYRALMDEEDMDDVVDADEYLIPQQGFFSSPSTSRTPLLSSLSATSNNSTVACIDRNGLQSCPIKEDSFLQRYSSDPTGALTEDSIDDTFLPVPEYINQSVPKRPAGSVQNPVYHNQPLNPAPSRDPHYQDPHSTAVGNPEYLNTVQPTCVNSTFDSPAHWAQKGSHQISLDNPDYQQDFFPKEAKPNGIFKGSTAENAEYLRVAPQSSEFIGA
Procedure, shortened: as §1

EGFR Exon19Del/T790M = biological target: T5, EGFR Exon19Del/T790M (Homo sapiens, UniProt P00533, DEL746-750/T790M); assay: Inhibition of EGFR Exon19Del/T790M biochemical enzymatic activity (HTRF); conditions: EGFR Exon19Del/T790M, 1 mM ATP, 1 h at room temperature
T5 construct: purchased Carna Bio
T5 sequence (P00533 with tags, fused parts or gaps DEL746-750/T790M limits assumed): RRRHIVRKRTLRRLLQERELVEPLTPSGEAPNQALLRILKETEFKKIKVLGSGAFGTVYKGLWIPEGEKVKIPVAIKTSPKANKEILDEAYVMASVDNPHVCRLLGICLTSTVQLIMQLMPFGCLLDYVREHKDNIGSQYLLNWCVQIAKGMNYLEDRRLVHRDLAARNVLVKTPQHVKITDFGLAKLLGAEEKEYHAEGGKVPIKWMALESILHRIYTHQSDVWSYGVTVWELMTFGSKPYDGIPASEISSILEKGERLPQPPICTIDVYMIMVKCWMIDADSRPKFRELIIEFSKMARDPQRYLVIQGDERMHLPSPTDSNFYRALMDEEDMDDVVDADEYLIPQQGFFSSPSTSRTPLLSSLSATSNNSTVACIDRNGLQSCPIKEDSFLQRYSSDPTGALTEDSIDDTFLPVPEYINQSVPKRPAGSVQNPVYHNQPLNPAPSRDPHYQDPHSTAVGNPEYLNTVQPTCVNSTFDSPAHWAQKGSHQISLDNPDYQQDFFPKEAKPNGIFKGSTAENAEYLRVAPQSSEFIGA
Procedure, shortened: as §1

EGFR[T790M/C797S/L858R] = biological target: T6, EGFR[T790M/C797S/L858R] (Homo sapiens, UniProt P00533, C797S/L858R/T790M); assay: Inhibition of EGFR[T790M/C797S/L858R] biochemical enzymatic activity (HTRF); conditions: EGFR[T790M/C797S/L858R], 1 mM ATP, 1 h at room temperature
T6 construct: purchased Carna Bio
Procedure, shortened: as §1

[1] = biological target: T7, EGFR[T790M/C797S/d746-750] (Homo sapiens, UniProt P00533, C797S/DEL746-750/T790M); assay: Inhibition of EGFR[T790M/C797S/d746-750] biochemical enzymatic activity (HTRF); conditions: 1 mM ATP, 1 h at room temperature
T7 construct: purchased Carna Bio
T7 sequence (P00533 with tags, fused parts or gaps DEL746-750/T790M/C797S limits assumed): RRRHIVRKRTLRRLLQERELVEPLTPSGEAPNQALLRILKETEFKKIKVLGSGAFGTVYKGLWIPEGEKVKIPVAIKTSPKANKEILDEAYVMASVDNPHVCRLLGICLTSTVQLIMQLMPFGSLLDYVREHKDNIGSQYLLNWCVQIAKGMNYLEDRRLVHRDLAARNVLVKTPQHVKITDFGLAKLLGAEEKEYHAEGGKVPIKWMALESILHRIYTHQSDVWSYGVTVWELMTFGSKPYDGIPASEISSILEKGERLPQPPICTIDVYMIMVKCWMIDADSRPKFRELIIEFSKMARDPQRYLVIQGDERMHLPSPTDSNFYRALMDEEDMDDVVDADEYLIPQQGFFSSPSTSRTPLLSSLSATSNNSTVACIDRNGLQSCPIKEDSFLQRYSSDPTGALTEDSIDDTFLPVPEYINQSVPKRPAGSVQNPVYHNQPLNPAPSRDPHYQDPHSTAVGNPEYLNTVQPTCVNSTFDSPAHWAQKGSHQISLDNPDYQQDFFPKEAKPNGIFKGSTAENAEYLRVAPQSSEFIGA
Procedure, shortened: as §1

EGFR (d746-750 C797S) = biological target: T8, EGFR (d746-750 C797S) (Homo sapiens, UniProt P00533, C797S/DEL746-750); assay: Inhibition of EGFR (d746-750 C797S) biochemical enzymatic activity (HTRF); conditions: EGFR (d746-750 C797S), 1 mM ATP, 1 h at room temperature
T8 construct: purchased signalchem
T8 sequence (P00533 with tags, fused parts or gaps DEL746-750/C797S limits assumed): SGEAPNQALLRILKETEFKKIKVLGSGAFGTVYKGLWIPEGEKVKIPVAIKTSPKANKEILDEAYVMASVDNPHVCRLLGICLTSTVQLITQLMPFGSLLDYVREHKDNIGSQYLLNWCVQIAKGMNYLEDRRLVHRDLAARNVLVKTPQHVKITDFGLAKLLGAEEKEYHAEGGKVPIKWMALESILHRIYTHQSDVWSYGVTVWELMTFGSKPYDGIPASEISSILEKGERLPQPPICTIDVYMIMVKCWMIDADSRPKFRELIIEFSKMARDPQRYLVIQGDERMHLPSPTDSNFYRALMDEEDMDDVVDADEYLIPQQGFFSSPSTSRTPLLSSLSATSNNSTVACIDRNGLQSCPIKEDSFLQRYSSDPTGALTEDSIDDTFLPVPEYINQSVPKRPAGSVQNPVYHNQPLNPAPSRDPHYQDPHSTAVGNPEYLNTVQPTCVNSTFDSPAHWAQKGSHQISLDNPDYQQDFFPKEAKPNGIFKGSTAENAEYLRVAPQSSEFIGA
Procedure, shortened: as §1

EGFR (C797S L858R) = biological target: T9, EGFR (C797S L858R) (Homo sapiens, UniProt P00533, C797S/L858R); assay: Inhibition of EGFR (C797S L858R) biochemical enzymatic activity (HTRF); conditions: EGFR (C797S L858R), 1 mM ATP, 1 h at room temperature
T9 construct: purchased signalchem
T9 sequence (P00533 25-1210 C797S/L858R): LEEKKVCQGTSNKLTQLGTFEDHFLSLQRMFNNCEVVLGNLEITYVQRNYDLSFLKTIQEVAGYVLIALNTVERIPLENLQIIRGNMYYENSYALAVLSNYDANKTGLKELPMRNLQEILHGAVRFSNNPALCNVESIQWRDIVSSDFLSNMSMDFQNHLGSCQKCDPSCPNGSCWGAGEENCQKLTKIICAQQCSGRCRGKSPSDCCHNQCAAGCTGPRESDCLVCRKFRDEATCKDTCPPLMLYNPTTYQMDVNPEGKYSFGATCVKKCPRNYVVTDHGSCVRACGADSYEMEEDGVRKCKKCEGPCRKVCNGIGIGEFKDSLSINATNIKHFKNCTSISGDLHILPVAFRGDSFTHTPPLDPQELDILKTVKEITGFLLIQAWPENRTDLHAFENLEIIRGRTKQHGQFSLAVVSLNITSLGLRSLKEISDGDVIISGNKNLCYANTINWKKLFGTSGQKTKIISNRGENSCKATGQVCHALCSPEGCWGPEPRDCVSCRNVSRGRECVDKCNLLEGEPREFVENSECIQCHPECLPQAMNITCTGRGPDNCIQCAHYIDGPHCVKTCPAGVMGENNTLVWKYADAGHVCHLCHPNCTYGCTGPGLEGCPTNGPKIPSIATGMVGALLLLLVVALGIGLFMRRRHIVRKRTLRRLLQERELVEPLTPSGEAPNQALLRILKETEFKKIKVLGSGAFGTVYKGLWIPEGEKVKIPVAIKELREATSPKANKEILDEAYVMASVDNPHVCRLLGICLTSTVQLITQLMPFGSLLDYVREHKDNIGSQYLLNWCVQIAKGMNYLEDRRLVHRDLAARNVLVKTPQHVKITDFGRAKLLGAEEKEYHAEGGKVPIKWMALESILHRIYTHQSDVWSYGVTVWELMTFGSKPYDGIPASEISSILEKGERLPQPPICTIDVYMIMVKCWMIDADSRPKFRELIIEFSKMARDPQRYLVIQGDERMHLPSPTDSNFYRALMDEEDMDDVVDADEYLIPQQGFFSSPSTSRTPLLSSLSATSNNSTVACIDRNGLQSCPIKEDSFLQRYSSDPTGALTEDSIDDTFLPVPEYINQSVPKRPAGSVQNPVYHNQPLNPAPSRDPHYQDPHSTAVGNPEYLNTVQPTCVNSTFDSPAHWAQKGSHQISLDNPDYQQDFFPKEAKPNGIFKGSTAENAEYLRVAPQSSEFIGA
Procedure, shortened: as §1

[2] = tested on: Ba/F3 cells expressing EGFR mutations; assay: Cell proliferation assay, Ba/F3 cells expressing EGFR mutations (CellTiter-Glo, 72 hours); assay type: cell-based; conditions: Mus musculus, BaF3, 72 h
Procedure, shortened: (§2)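 Luminescent viable-cell counts were taken on a day 0 plate at dosing and again at endpoint. Proliferation was calculated as (sample − G0)/(DMSO − G0). Seeding was 5000 Ba/F3 or 500 PC-9 cells per well in RPMI1640, followed by overnight attachment and serial compound dilutions. The GI50 was fitted.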

PC-9 = assay: Cell proliferation assay, PC-9 cells (CellTiter-Glo, 72 hours); assay type: cell-based; conditions: Homo sapiens, PC-9, 72 h, PC9 cells, read-out: GI50 PC9
Procedure, shortened: as §2

A-431 = assay: Cell proliferation assay, A-431 cells (GI50, Table 6); assay type: cell-based; conditions: Homo sapiens, A-431, A-431 cells
[3] = EGFR Exon19Del, read-out: IC50 @Del19
[4] = read-out: IC50 @T790M- C797S - L858R
[5] = EGFR[T790M/C797S/d746-750], read-out: IC50 @T790M - C797S - Del19
[6] = BaF3 cells, EGFR DEL19 - C797S, read-out: GI50 DEL19 - C797S/BaF3
[7] = BaF3 cells, EGFR DEL19 - T790-C797S, read-out: GI50 DEL19 - T790-C797S/BaF3
[8] = BaF3 cells, EGFR L858R - C797S, read-out: GI50 L858R - C797S/BaF3
[9] = BaF3 cells, EGFR L858R - T790-C797S, read-out: GI50 L858R - T790-C797S/BaF3
[10] = BaF3 cells, EGFR L858R - T790M, read-out: GI50 L858R - T790M/BaF3
[11] = BaF3 cells, EGFR L858R, read-out: GI50 L858R/BaF3
[12] = EGFR DEL19 - T790M, read-out: GI50 DEL19 - T790M

SMILES	IC50 (EGFR wild type; read-out: IC50 @WT) [nM]	IC50 (EGFR L858R; read-out: IC50 @L858R) [nM]	IC50 (EGFR L858R/T790M; read-out: IC50 @L858R-T790M) [nM]	IC50 (EGFR Exon19Del; [3]) [nM]	IC50 (EGFR Exon19Del/T790M; read-out: IC50 @Del19-T790M) [nM]	IC50 (EGFR[T790M/C797S/L858R]; [4]) [nM]	IC50 [1, 5] [nM]	IC50 (EGFR (d746-750 C797S); read-out: IC50 @Del19-C797S) [nM]	IC50 (EGFR (C797S L858R); read-out: IC50 @L858-C797S) [nM]	GI50 [2, 6] [nM]	GI50 [2, 7] [nM]	GI50 [2, 8] [nM]	GI50 [2, 9] [nM]	GI50 [2, 10] [nM]	GI50 [2, 11] [nM]	GI50 [2, 12] [nM]	GI50 (PC-9) [nM]	GI50 (A-431) [nM]	also measured
Cc1cc2cc(n1)-c1cnn(C)c1OCCC[C@@H](C)Cn1c(nc3ccc4c(c31)CCN(CCN(C)C)C4)NC2=O [Example B12, (11R)-18-[2-(dimethylamino)ethyl]-5,11,30-trimethyl-7-oxa-4,5,13,18,24,26,31-heptaazahexacyclo[26.3.1.0^{2,6}.0^{13,25}.0^{14,23}.0^{15,20}]dotriaconta-1(31),2(6),3,14,20,22,24,28(32),29-nonaen-27-one]	> 5000	44	3.9	3.7	2.5	3	2.6	2.3	11	1.4	0.56	5.6	0.38	1	4	0.79	12	1080	–
Cc1cc2cc(n1)-c1cnn(C)c1OCCCCCn1c(nc3ccc4c(c31)CCNC4)NC2=O [Example B16, 5,30-dimethyl-7-oxa-4,5,13,18,24,26,31-heptaazahexacyclo[26.3.1.0^{2,6}.0^{13,25}.0^{14,23}.0^{15,20}]dotriaconta-1(31),2(6),3,14,20,22,24,28(32),29-nonaen-27-one]	> 5000	> 5000	446	497	7.1	55	3.2	197	> 5000	57	–	297	8.8	308	286	29	438	3230	–
Cc1cc2cc(n1)-c1cnn(C)c1OCCCCCn1c(nc3ccc4c(c31)CCN(C1COC1)C4)NC2=O [Example B17, 5,30-Dimethyl-18-(oxetan-3-yl)-7-oxa-4,5,13,18,24,26,31-heptaazahexacyclo[26.3.1.0^{2,6}.0^{13,25}.0^{14,23}.0^{15,20}]dotriaconta-1(31),2(6),3,14,20,22,24,28(32),29-nonaen-27-one]	> 5000	> 5000	> 5000	> 5000	128	4160	51	2110	> 5000	26	10	82	6	21	114	8.7	71	1090	–
Cc1cc2cc(n1)-c1cnn(C)c1OCCN1CC3CCC(CC3)(C1)n1c(nc3ccc(N4CC[C@H](N(C)C)C4)cc31)NC2=O [Example B28]	> 5000	320	17	23	9.5	5.9	7.8	14	145	17	5	116	11	34	85	5	98	7810	–
Cc1cc2cc(n1)-c1cnn(C)c1OCCN1CC3CCC(CC3)(C1)n1c(nc3ccc(N(C)CCN(C)C)cc31)NC2=O [Example B32]	> 5000	197	11	17	6.6	3.9	2.3	13	117	11	3	78	7	20	64	4	81	7410	–

Continued, in another order:

IC50 (EGFR wild type; read-out: IC50 @WT) [nM]	IC50 (EGFR L858R; read-out: IC50 @L858R) [nM]	IC50 (EGFR L858R/T790M; read-out: IC50 @L858R-T790M) [nM]	IC50 (EGFR Exon19Del; [3]) [nM]	IC50 (EGFR Exon19Del/T790M; read-out: IC50 @Del19-T790M) [nM]	IC50 (EGFR[T790M/C797S/L858R]; [4]) [nM]	IC50 [1, 5] [nM]	IC50 (EGFR (d746-750 C797S); read-out: IC50 @Del19-C797S) [nM]	IC50 (EGFR (C797S L858R); read-out: IC50 @L858-C797S) [nM]	GI50 [2, 6] [nM]	GI50 [2, 7] [nM]	GI50 [2, 8] [nM]	GI50 [2, 9] [nM]	GI50 [2, 10] [nM]	GI50 [2, 11] [nM]	GI50 [2, 12] [nM]	GI50 (PC-9) [nM]	GI50 (A-431) [nM]	SMILES	also measured
2540	160	7	5.8	3.2	4.2	4.1	3.8	37	4.8	1	20	1.2	3.4	18	2.9	22	507	Cc1cc2cc(n1)-c1cnn(C)c1OCCC[C@@H](C)Cn1c(nc3ccc4c(c31)CCN(C1COC1)C4)NC2=O [Example B13, (11R)-5,11,30-trimethyl-18-(oxetan-3-yl)-7-oxa-4,5,13,18,24,26,31-heptaazahexacyclo[26.3.1.0^{2,6}.0^{13,25}.0^{14,23}.0^{15,20}]dotriaconta-1(31),2(6),3,14,20,22,24,28(32),29-nonaen-27-one]	–
–	–	–	–	–	–	–	–	–	2	2	22	2	5	17	2	19	3600	Cc1cc2cc(n1)-c1cnn(C)c1OCCN1CC3CCC(CC3)(C1)n1c(nc3ccc(N4CCC(N(C)C)CC4)cc31)NC2=O [Example B27, 5-[4-(dimethylamino)piperidin-1-yl]-15,21-dimethyl-23-oxa-2,9,11,16,20,21,26-heptaazaheptacyclo[26.2.2.1^{1,26}.1^{13,17}.0^{2,10}.0^{3,8}.0^{18,22}]tetratriaconta-3,5,7,9,13,15,17(34),18(22),19-nonaen-12-one]	IC50 (EGFR wild type; IC50 @WT): 3540 nM; IC50 (EGFR L858R; IC50 @L858R): 67 nM; IC50 (EGFR L858R/T790M; IC50 @L858R-T790M): 8.3 nM; IC50 (EGFR Exon19Del; IC50 @Del19, EGFR Exon19Del): 11 nM; IC50 (EGFR Exon19Del/T790M; IC50 @Del19-T790M): 8.3 nM; IC50 (EGFR[T790M/C797S/L858R]; IC50 @T790M- C797S - L858R): 3.8 nM; IC50 ([1]; IC50 @T790M - C797S - Del19, EGFR[T790M/C797S/d746-750]): 3.1 nM; IC50 (EGFR (d746-750 C797S); IC50 @Del19-C797S): 6.3 nM; IC50 (EGFR (C797S L858R); IC50 @L858-C797S): 30 nM
> 5000	110	11	17	12	5.6	4.9	8.7	64	3	2	35	4	9	22	2	33	3560	Cc1cc2cc(n1)-c1cnn(C)c1OCCN1CC3CCC(CC3)(C1)n1c(nc3ccc(N4CCC5(CC4)CCN5C)cc31)NC2=O [Example B30]	–
